Legend:
Experiment in all cases: pIC50, kinobeads binding competition
Details in all cases: cell material: Jurkat lysate
ACVR2B = ACVR2B (UniProt Q13705)
PLK1 = PLK1 (UniProt P53350)
UniProt P23443 = target: UniProt P23443
UniProt Q05655 = target: UniProt Q05655
SGK3 = target: T1, SGK3 (UniProt Q96BR1)
T1 sequence (whole entry): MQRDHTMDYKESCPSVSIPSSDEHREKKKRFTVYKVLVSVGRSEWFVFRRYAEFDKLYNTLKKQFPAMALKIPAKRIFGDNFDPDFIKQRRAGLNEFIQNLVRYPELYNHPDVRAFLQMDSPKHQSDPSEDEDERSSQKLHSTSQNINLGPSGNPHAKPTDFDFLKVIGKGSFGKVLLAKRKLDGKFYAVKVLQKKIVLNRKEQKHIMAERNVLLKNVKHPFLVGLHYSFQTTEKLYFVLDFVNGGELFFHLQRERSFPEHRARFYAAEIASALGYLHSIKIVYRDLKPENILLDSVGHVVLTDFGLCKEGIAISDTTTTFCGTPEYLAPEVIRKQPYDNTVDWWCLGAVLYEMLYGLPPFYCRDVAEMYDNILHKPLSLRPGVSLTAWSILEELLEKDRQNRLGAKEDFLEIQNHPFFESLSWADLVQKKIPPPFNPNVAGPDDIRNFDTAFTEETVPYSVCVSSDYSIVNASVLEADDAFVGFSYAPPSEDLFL

EPHB2 = target: T2, EPHB2 (UniProt P29323)
T2 sequence (whole entry): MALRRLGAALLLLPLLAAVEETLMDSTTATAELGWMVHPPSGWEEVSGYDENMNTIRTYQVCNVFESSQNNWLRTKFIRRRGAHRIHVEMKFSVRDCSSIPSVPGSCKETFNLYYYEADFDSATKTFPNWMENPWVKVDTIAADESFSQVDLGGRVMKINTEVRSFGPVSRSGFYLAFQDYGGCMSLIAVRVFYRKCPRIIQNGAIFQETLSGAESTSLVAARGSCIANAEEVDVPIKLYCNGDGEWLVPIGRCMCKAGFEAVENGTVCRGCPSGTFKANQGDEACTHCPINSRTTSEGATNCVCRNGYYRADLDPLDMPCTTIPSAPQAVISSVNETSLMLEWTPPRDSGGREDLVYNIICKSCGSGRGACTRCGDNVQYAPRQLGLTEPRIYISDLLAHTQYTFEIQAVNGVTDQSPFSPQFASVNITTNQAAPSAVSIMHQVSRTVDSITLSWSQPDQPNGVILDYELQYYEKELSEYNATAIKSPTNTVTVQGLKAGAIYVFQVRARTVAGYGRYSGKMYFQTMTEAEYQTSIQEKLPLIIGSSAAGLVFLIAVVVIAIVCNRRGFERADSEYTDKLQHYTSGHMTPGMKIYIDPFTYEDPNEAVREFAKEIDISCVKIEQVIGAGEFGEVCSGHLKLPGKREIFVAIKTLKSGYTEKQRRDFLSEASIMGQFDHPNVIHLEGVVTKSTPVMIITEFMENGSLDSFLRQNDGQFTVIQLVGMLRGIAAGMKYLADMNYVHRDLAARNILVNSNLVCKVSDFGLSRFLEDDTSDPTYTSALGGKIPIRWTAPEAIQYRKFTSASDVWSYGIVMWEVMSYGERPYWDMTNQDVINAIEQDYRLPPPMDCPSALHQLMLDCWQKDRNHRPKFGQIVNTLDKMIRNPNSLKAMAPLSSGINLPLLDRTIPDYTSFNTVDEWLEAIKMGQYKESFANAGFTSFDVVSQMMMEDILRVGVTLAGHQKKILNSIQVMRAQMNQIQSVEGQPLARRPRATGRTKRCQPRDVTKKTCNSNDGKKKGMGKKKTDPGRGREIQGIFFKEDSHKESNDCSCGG

PRKD2 = target: T3, PRKD2 (UniProt Q9BZL6)
T3 sequence (whole entry): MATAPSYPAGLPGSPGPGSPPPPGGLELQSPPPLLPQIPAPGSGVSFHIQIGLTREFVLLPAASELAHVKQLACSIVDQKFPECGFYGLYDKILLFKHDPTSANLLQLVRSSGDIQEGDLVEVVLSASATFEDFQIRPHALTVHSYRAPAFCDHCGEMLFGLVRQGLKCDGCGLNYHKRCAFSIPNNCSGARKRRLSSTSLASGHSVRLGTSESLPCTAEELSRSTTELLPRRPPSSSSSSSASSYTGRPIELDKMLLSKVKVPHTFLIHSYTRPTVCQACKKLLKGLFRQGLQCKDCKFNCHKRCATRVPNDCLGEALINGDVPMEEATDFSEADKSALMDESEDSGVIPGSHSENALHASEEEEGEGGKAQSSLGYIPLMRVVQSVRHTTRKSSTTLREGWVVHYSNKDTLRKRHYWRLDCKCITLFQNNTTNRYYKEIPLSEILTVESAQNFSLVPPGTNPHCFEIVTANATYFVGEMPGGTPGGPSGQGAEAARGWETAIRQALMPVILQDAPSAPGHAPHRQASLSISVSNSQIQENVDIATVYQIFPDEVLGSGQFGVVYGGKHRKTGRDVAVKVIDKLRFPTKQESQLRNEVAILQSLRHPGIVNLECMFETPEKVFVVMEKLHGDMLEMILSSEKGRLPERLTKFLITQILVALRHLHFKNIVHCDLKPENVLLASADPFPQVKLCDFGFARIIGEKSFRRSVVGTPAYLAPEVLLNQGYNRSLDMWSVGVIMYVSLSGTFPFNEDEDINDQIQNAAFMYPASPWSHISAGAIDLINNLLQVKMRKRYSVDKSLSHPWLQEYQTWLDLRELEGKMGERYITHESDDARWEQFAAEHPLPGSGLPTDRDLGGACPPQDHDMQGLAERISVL

SLK = SLK (UniProt Q9H2G2)
SLK, sequence (Q9H2G2 whole entry, looked up): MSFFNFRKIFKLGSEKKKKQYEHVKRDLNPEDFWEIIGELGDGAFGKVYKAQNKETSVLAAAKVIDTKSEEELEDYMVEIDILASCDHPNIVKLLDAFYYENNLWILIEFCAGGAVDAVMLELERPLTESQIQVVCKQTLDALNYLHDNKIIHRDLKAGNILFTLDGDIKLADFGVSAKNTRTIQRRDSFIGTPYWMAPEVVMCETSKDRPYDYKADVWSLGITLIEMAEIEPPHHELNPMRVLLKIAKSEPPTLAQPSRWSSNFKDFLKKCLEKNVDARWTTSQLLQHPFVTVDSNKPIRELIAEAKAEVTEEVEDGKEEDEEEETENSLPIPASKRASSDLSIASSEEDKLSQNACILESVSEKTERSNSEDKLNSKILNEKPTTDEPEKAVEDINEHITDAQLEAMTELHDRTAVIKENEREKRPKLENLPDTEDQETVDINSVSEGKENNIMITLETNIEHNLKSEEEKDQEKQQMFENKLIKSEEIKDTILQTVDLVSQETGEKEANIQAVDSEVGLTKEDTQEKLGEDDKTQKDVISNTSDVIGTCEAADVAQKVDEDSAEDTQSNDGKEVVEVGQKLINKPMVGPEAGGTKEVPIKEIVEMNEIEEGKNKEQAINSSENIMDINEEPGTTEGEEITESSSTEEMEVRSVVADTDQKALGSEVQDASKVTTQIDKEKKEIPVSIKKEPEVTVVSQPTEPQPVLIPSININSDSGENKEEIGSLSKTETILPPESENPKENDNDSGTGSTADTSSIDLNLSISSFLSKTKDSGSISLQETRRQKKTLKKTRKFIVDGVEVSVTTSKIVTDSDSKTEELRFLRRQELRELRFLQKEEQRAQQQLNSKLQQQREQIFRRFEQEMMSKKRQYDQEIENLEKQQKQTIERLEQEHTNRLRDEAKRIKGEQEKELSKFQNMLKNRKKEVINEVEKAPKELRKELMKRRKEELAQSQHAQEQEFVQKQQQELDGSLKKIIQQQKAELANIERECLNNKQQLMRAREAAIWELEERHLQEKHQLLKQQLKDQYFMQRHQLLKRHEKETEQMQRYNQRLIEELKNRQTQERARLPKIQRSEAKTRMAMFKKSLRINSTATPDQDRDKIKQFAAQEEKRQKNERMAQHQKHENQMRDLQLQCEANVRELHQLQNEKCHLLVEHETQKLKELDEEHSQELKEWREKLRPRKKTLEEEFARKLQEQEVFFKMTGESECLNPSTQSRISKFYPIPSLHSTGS

UniProt Q9Y2I7 = target: UniProt Q9Y2I7
UniProt Q9Y2I7, sequence (Q9Y2I7 whole entry): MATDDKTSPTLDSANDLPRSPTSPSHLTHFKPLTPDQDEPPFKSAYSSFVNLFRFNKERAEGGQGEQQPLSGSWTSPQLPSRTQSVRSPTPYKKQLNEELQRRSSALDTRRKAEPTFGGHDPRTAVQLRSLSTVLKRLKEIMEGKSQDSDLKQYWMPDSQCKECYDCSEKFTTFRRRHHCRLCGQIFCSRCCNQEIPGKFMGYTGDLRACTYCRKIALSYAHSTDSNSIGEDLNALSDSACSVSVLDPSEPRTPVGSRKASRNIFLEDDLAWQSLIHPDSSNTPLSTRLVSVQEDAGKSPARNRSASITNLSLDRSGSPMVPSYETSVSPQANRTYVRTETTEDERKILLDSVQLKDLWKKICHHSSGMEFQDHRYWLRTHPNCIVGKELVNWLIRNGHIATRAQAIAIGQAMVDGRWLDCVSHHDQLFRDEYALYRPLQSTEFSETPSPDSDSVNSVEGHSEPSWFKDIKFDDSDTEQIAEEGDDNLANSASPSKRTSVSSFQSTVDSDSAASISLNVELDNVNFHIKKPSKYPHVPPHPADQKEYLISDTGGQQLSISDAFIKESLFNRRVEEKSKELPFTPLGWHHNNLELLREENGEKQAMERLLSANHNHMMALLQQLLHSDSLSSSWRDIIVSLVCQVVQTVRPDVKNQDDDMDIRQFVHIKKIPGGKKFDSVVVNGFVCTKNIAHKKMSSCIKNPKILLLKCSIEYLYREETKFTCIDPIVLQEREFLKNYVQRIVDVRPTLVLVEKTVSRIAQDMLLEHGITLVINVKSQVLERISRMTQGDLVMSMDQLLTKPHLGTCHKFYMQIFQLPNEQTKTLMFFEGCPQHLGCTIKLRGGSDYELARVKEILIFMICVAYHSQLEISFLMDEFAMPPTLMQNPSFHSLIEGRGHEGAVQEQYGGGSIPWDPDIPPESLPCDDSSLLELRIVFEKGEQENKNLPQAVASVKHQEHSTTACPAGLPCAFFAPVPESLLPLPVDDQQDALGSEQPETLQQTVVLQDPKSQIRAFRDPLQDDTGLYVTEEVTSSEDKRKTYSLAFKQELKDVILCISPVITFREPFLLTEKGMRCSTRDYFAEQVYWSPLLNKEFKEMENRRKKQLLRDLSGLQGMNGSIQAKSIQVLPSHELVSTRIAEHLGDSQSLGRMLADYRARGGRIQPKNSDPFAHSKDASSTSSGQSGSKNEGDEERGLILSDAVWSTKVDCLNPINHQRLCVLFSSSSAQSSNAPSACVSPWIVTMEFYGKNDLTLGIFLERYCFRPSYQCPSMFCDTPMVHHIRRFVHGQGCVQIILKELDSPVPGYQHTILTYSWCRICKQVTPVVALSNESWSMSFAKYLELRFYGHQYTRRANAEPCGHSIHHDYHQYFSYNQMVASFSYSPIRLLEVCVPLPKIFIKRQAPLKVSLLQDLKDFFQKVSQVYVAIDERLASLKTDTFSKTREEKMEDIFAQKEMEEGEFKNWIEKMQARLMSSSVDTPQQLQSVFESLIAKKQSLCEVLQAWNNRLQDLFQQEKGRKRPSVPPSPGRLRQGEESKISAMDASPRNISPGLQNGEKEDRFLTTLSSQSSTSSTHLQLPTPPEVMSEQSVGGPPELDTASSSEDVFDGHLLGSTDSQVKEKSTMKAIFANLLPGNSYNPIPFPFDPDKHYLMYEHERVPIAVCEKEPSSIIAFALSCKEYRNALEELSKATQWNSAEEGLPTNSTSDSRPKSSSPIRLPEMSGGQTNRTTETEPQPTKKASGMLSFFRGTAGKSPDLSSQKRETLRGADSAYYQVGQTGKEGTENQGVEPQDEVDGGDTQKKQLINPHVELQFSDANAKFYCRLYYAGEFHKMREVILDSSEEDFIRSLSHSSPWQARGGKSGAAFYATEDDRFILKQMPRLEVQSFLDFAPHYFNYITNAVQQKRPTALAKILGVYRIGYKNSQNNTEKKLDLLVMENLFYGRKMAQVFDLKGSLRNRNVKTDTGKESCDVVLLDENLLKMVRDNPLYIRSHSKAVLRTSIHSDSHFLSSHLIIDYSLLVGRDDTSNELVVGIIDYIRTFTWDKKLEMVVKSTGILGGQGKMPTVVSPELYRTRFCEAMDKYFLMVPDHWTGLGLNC

Measured: pIC50

UniProt Q05655, sequence (Q05655 whole entry, looked up): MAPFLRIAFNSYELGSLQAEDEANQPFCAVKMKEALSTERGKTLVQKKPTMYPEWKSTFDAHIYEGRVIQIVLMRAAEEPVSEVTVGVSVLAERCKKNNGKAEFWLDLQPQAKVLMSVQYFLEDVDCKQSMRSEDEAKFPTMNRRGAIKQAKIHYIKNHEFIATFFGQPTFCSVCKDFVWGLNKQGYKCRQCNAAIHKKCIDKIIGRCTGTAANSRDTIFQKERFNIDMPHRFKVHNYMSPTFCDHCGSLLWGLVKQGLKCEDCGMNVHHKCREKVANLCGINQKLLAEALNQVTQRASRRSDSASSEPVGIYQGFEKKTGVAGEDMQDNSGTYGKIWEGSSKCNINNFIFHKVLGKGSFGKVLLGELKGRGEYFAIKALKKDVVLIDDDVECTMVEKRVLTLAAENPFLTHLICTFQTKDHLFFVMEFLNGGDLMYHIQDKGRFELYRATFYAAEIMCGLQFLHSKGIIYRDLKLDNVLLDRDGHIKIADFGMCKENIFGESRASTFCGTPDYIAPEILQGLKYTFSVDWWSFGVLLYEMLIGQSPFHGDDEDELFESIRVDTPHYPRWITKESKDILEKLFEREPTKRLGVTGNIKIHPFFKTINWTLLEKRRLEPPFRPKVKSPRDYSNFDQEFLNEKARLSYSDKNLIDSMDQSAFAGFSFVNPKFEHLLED
UniProt P23443, sequence (P23443 whole entry, looked up): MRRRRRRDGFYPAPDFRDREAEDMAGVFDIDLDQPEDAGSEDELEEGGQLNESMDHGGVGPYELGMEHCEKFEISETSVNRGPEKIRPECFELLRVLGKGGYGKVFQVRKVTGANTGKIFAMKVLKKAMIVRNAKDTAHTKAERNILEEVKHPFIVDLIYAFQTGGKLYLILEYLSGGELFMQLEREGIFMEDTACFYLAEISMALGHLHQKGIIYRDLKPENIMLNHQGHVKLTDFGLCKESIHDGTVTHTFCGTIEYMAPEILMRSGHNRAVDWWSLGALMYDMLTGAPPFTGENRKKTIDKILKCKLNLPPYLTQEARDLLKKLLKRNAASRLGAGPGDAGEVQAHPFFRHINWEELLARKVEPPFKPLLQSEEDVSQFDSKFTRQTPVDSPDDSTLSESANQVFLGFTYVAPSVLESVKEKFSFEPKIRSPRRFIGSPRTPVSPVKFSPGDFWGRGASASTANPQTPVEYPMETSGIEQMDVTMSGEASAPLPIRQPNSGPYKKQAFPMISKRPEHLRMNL
ACVR2B, sequence (Q13705 whole entry): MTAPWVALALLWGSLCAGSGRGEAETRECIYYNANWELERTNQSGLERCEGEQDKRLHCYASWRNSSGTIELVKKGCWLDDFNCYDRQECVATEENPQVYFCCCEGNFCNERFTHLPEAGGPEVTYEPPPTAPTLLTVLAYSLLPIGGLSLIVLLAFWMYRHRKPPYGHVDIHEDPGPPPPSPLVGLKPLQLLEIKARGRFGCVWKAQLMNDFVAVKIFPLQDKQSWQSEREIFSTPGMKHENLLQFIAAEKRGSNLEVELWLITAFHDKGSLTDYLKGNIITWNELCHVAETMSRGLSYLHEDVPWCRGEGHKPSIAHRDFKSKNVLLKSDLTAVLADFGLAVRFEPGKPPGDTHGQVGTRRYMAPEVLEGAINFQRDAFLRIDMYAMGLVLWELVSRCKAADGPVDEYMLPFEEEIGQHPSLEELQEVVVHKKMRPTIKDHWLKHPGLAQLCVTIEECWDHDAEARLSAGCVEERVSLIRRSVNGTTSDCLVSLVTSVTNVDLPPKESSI

CCc1cnn2c(NCc3ccc[n+]([O-])c3)cc(N3CCCC[C@H]3CCO)nc12 [dinaciclib]
< 4.52: all assays above

— the supplement of paper PMC12076712
